Reference: ChEMBL document CHEMBL1201862, “PubChem BioAssay data set” (2004)
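Tested at 5 concentrations; 48 h exposure; 96-well plates; endpoints linearly interpolated, else capped at highest concentration. Here, GI50 denotes the concentration required for 50% inhibition of growth.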 Calls of active or inactive are those of the source. Cut-off read from the data, not from the text of the source: active = GI50 up to about 1.1 µM and inactive = higher.

Legend:
Test in all cases: inhibition of tumour cell growth, NCI panel, 48 h
CCRF-CEM = test system: CCRF-CEM
SW-620 = test system: SW-620
HCT-15 = test system: HCT-15
COLO 205 = test system: COLO 205
RXF 393 = test system: RXF 393
MOLT-4 = test system: MOLT-4
K562 = test system: K562
OVCAR-3 = test system: OVCAR-3
SK-MEL-5 = test system: SK-MEL-5
HT-29 = test system: HT-29
M14 = test system: M14
NCI-H23 = test system: NCI-H23
SR = test system: SR
OVCAR-4 = test system: OVCAR-4
SNB-78 = test system: SNB-78
KM12 = test system: KM12
TK-10 = test system: TK-10
U-251 = test system: U-251
IGROV-1 = test system: IGROV-1
SNB-19 = test system: SNB-19
Malme-3M = test system: Malme-3M
SK-OV-3 = test system: SK-OV-3
KM-20L2 = test system: KM-20L2
SF-295 = test system: SF-295
XF498 = test system: XF498
HOP-92 = test system: HOP-92
SK-MEL-2 = test system: SK-MEL-2
UACC-62 = test system: UACC-62
SN12C = test system: SN12C
HCC 2998 = test system: HCC 2998
CAKI-1 = test system: CAKI-1
SK-MEL-28 = test system: SK-MEL-28
NCI-H522 = test system: NCI-H522
DLD-1 = test system: DLD-1
M19-MEL = test system: M19-MEL
OVCAR-5 = test system: OVCAR-5
DMS-114 = test system: DMS-114
UO-31 = test system: UO-31
OVCAR-8 = test system: OVCAR-8
LXFL 529 = test system: LXFL 529
DMS-273 = test system: DMS-273
SF-539 = test system: SF-539
HCT-116 = test system: HCT-116
SF-268 = test system: SF-268
HOP-62 = test system: HOP-62
RPMI-8226 = test system: RPMI-8226
HL-60 = test system: HL-60
SNB-75 = test system: SNB-75
NCI-H226 = test system: NCI-H226
ACHN = test system: ACHN
NCI-H460 = test system: NCI-H460
786-0 = test system: 786-0
UACC-257 = test system: UACC-257
A549 = test system: A549

In the case of `COc1cc(/C=C(\NC(=O)c2ccccc2)c2nc3cc([N+](=O)[O-])ccc3[nH]2)cc(OC)c1OC`, the GI50 (CCRF-CEM) was 35.9 µM (inactive), the GI50 (SW-620) was 76.7 µM (inactive) and the GI50 (HCT-15) was 40 µM. For the same compound, the GI50 (COLO 205) was > 100 µM (inactive), the GI50 (RXF 393) was > 100 µM (inactive) and the GI50 (MOLT-4) was 29 µM (inactive). The GI50 (K562) was 34.3 µM (inactive), the GI50 (OVCAR-3) was > 100 µM (inactive) and the GI50 (SK-MEL-5) was 96.6 µM (inactive). The GI50 (HT-29) was > 100 µM (inactive), the GI50 (M14) was > 100 µM (inactive) and the GI50 (NCI-H23) was > 100 µM (inactive). The GI50 (SR) was 42.2 µM (inactive), the GI50 (OVCAR-4) was 38.5 µM (inactive) and the GI50 (SNB-78) was > 100 µM (inactive). For the same compound, the GI50 (KM12) was 84.5 µM (inactive), the GI50 (TK-10) was > 100 µM (inactive) and the GI50 (U-251) was > 100 µM (inactive). The GI50 (IGROV-1) was > 100 µM (inactive), the GI50 (SNB-19) was > 100 µM (inactive) and the GI50 (Malme-3M) was > 100 µM (inactive). The GI50 (SK-OV-3) was 78.3 µM (inactive), the GI50 (KM-20L2) was 78.7 µM (inactive) and the GI50 (SF-295) was > 100 µM (inactive). The GI50 (XF498) was > 100 µM (inactive), the GI50 (HOP-92) was 57 µM (inactive) and the GI50 (SK-MEL-2) was > 100 µM (inactive). The GI50 (UACC-62) was > 100 µM (inactive), the GI50 (SN12C) was > 100 µM (inactive) and the GI50 (HCC 2998) was > 100 µM (inactive). The GI50 (CAKI-1) was 68.5 µM (inactive), the GI50 (SK-MEL-28) was > 100 µM (inactive) and the GI50 (NCI-H522) was 30.2 µM (inactive). For the same compound, the GI50 (DLD-1) was 57.3 µM (inactive), the GI50 (M19-MEL) was > 100 µM (inactive) and the GI50 (OVCAR-5) was > 100 µM (inactive). The GI50 (DMS-114) was 57.9 µM (inactive), the GI50 (UO-31) was 23.1 µM (inactive) and the GI50 (OVCAR-8) was 96.4 µM (inactive). The GI50 (LXFL 529) was 35.4 µM (inactive).
In the case of `C#CC1(O)CCC2C3CCc4cc(Oc5nc(F)nc(-c6c7ccccc7c7n6CCS7)n5)ccc4C3CC[C@@]21C` (stereo not given in full), the GI50 (CCRF-CEM) was 11 µM (inactive), the GI50 (DMS-273) was 27.2 µM (inactive) and the GI50 (SW-620) was 32.6 µM (inactive). The GI50 (HCT-15) was 15.1 µM, the GI50 (COLO 205) was 29 µM (inactive) and the GI50 (SF-539) was 15.7 µM (inactive). The GI50 (MOLT-4) was 26.9 µM (inactive), the GI50 (K562) was 21.3 µM (inactive) and the GI50 (HCT-116) was 12.1 µM (inactive). The GI50 (OVCAR-3) was 17.9 µM (inactive), the GI50 (SF-268) was 29 µM (inactive) and the GI50 (SK-MEL-5) was 17.4 µM (inactive). For the same compound, the GI50 (HOP-62) was 17.9 µM (inactive), the GI50 (HT-29) was 27.9 µM (inactive) and the GI50 (M14) was 17.5 µM (inactive). The GI50 (NCI-H23) was 18.7 µM (inactive), the GI50 (SR) was 5.79 µM (inactive) and the GI50 (OVCAR-4) was 15.3 µM (inactive). For the same compound, the GI50 (KM12) was 15.1 µM (inactive), the GI50 (RPMI-8226) was 19.6 µM (inactive) and the GI50 (HL-60) was 19.8 µM (inactive). The GI50 (TK-10) was 27.2 µM (inactive), the GI50 (SNB-75) was 12.2 µM (inactive) and the GI50 (U-251) was 17.5 µM (inactive). For the same compound, the GI50 (NCI-H226) was 34 µM (inactive), the GI50 (IGROV-1) was 29.2 µM (inactive) and the GI50 (ACHN) was 29.6 µM (inactive). For the same compound, the GI50 (SNB-19) was 24.6 µM (inactive), the GI50 (Malme-3M) was 38.5 µM (inactive) and the GI50 (NCI-H460) was 35.4 µM (inactive). The GI50 (KM-20L2) was 29.2 µM (inactive), the GI50 (786-0) was 34.1 µM (inactive) and the GI50 (SF-295) was 15.6 µM (inactive). The GI50 (XF498) was 37.7 µM (inactive), the GI50 (HOP-92) was 23.8 µM (inactive) and the GI50 (SK-MEL-2) was 5.62 µM (inactive). The GI50 (UACC-62) was 21.1 µM (inactive), the GI50 (HCC 2998) was 19.2 µM (inactive) and the GI50 (CAKI-1) was 28.8 µM (inactive). The GI50 (SK-MEL-28) was 21.1 µM (inactive), the GI50 (NCI-H522) was 4.37 µM (inactive) and the GI50 (DLD-1) was 39.8 µM (inactive). For the same compound, the GI50 (M19-MEL) was 33.9 µM (inactive), the GI50 (OVCAR-5) was > 100 µM (inactive) and the GI50 (DMS-114) was 11.2 µM (inactive). For the same compound, the GI50 (UO-31) was 28.6 µM (inactive), the GI50 (UACC-257) was 36.1 µM (inactive) and the GI50 (OVCAR-8) was 27.7 µM (inactive). For the same compound, the GI50 (LXFL 529) was 25.1 µM (inactive) and the GI50 (A549) was 33.6 µM (inactive).
